Test results: ChEMBL document CHEMBL2424561, “Discovery of new antitubercular agents by combining pyrazoline and benzoxazole pharmacophores: design, synthesis and insights into the binding interactions” (2013)
≈ marks a conversion by molar mass, not a printed value.

System: Mycobacterium tuberculosis
Experiment: Antitubercular activity against multidrug-resistant Mycobacterium tuberculosis after 6 weeks
Type: functional

Compound	MIC [µg/mL]
CC(=O)N1N=C(c2ccccc2)CC1c1ccc2oc(N)nc2c1 (stereo not given)	25 (≈ 78 µM)
CC(=O)N1N=C(c2ccccc2)CC1c1cc(N)c(O)c(Cl)c1 (stereo not given)	25 (≈ 75.8 µM)
CC(=O)N1N=C(c2ccccc2)CC1c1ccc2oc(S)nc2c1 (stereo not given)	25 (≈ 74.1 µM)
COc1cc(C2CC(c3ccc(Cl)cc3Cl)=NN2C(C)=O)cc2nc(N)oc12 (stereo not given)	12.5 (≈ 29.8 µM)
COc1cc(C2CC(c3ccc(F)cc3)=NN2C(C)=O)cc2nc(N)oc12 (stereo not given)	25 (≈ 67.9 µM)
CC(=O)N1N=C(c2ccccc2Br)CC1c1cc(N)c(O)c(Cl)c1 (stereo not given)	25 (≈ 61.2 µM)
COc1cc(C2CC(c3ccccc3Br)=NN2C(C)=O)cc2nc(N)oc12 (stereo not given)	25 (≈ 58.2 µM)
COc1cc(C2CC(c3ccc(Cl)cc3Cl)=NN2C(C)=O)cc(N)c1O (stereo not given)	12.5 (≈ 31.7 µM)
NNC(=O)c1ccncc1 [ISONIAZID]	6.25 (≈ 45.6 µM)
CC(=O)N1N=C(c2ccccc2Br)CC1c1ccc2oc(S)nc2c1 (stereo not given)	6.25 (≈ 15 µM)
COc1cc(C2CC(c3ccc(F)cc3)=NN2C(C)=O)cc2nc(S)oc12 (stereo not given)	6.25 (≈ 16.2 µM)
COc1cc(C2CC(c3ccccc3Br)=NN2C(C)=O)cc2nc(S)oc12 (stereo not given)	25 (≈ 56 µM)
CC(=O)N1N=C(c2ccccc2Br)CC1c1cc(Cl)c2oc(S)nc2c1 (stereo not given)	12.5 (≈ 27.7 µM)
COc1cc(C2CC(c3ccccc3)=NN2C(C)=O)cc2nc(S)oc12 (stereo not given)	12.5 (≈ 34 µM)
COc1cc(C2CC(c3ccccc3Br)=NN2C(C)=O)cc(N)c1O (stereo not given)	3.25 (≈ 8.04 µM)
COc1cc(C2CC(c3ccc(F)cc3)=NN2C(C)=O)cc(N)c1O (stereo not given)	25 (≈ 72.8 µM)
COc1cc(C2CC(c3ccccc3)=NN2C(C)=O)cc(N)c1O (stereo not given)	25 (≈ 76.8 µM)
COc1cc(C2CC(c3ccccc3)=NN2C(C)=O)cc2nc(N)oc12 (stereo not given)	6.25 (≈ 17.8 µM)
COc1cc(C2CC(c3ccc(Cl)cc3Cl)=NN2C(C)=O)cc2nc(S)oc12 (stereo not given)	12.5 (≈ 28.6 µM)
CC(=O)N1N=C(c2ccccc2)CC1c1cc(Cl)c2oc(S)nc2c1 (stereo not given)	25 (≈ 67.2 µM)
CC(=O)N1N=C(c2ccccc2Br)CC1c1ccc2oc(N)nc2c1 (stereo not given)	12.5 (≈ 31.3 µM)
CC(=O)N1N=C(c2ccccc2Br)CC1c1ccc(O)c(N)c1 (stereo not given)	12.5 (≈ 33.4 µM)
CC(=O)N1N=C(c2ccccc2Br)CC1c1cc(Cl)c2oc(N)nc2c1 (stereo not given)	25 (≈ 57.6 µM)
CC(=O)N1N=C(c2ccccc2)CC1c1cc(Cl)c2oc(N)nc2c1 (stereo not given)	25 (≈ 70.5 µM)
CC(=O)N1N=C(c2ccccc2)CC1c1ccc(O)c(N)c1 (stereo not given)	25 (≈ 84.6 µM)
